Measurements as given in patent publication US8133917B2, “Pterostilbene as an agonist for the peroxisome proliferator-activated receptor alpha isoform” (The United States of America as represented by the …, priority 2004, dated 2012).

Experiments:
[1] = target: T1, PPARα (Rattus norvegicus, UniProt P37230); assay: Activation of PPARα in H4IIEC3 cells transfected with PPRE-AB-luciferase reporter gene; format: cell-based
T1 construct: endogenous in cells; host or cells: H4IIEC3 rat hepatoma cells
T1 sequence (P37230 1-468): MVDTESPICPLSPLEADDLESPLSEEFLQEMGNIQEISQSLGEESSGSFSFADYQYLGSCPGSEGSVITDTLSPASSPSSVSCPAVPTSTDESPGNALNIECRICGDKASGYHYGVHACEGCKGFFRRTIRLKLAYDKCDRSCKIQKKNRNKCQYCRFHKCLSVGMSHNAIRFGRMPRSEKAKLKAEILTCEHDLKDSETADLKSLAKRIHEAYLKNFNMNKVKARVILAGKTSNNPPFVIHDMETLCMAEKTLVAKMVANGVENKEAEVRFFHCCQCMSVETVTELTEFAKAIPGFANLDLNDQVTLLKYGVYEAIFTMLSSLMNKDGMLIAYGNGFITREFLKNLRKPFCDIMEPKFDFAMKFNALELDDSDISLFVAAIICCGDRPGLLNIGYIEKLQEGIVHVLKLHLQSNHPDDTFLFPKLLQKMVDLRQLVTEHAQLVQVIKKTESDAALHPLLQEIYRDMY

[2] = Hamster feeding study: plasma lipoprotein cholesterol, glucose, weights; format: in vivo, golden Syrian hamsters; details: hamsters; for plasma LDL cholesterol lower compared to control group / total plasma cholesterol lower compared to control group: 25 mg/kg diet
Experimental: Male golden Syrian hamsters (Charles River, Wilmington, Mass.), initial weight ranging from 34-41 g, were fed a powdered stock diet (Rodent Lab Chow 5001, Purina Mills, St. Louis, Mo.) for 7 days. The animals were placed in individual wire-bottom cages in a room kept at 20-22° C., 60% rh and 12 h light and dark cycle. Following the initial 7 day period, 8-10 animals were randomly assigned from a weight sorted list to each of five test diets (α-cellulose control and test substance). Food intake was measured twice each week and body weights were monitored once a week. After 21 days on the treatment diets, the animals were killed, blood was collected and analyzed for total cholesterol by the cholesterol oxidase method and lipoprotein cholesterol, by size exclusion chromatography, as previously described (German et al. 1996. Nutrition Res. 16: 1239-1249). All animal procedures were approved by the Animal Care and Use Committee, Western Regional Research Center, USDA, Albany, Calif. and conformed to the principles in “Guide for the Care and Use of Laboratory Animals” (Committee on Care and Use of Laboratory Animals 1985). Plasma blood glucose was determined using a blood glucose meter (Fast Glucose Meter-Precision Xtra, MediSense, Bedford, Mass., USA). Diets were prepared by dissolving powdered cholesterol into warmed butterfat, followed by the addition of corn and fish oil. The small amounts of test ingredients were dissolved in about 50 ml of ethanol and added to the stirring dry ingredients. The liquid fat was also added to the dry ingredients while stirring. Differences between treatments were tested by two-tailed t-test assuming equal variance, and were considered significant at p<0.05.

[3] = test system: H4IIEC3 cells; assay: Toxicity to H4IIEC3 cells during the reporter assay; format: cell-based, rat; details: 100 and 300 μM
[4] = Hamster feeding study: plasma lipoprotein cholesterol, glucose, weights; format: in vivo, golden Syrian hamsters; details: hamsters; plant materials at about 10% of total diet; data not shown

PPARα activation (luciferase activity) ([1]; 100 μM, H4IIEC3 cells) | maximal luciferase response compared to control ([1]; 100 μM, H4IIEC3 cells, 30 hr, n=4) | agonist / activator of PPARα ([1]; H4IIEC3 cells) | Final Weights: Body wt (AVG) ([2]; 25 ppm in diet, 21 days) | Final Weights: Liver wt (AVG) ([2]; 25 ppm in diet, 21 days) | Liver/Body (AVG) ([2]; 25 ppm in diet, 21 days) | SMILES | plasma LDL cholesterol lower compared to control group [2] | total plasma cholesterol lower compared to control group [2] | LDL/HDL (AVG) ([2]; 25 ppm in diet, 21 days) | Plasma Lipoprotein Cholesterol HDL (AVG) ([2]; 25 ppm in diet, 21 days) | Plasma Lipoprotein Cholesterol LDL (AVG) ([2]; 25 ppm in diet, 21 days) | Plasma Lipoprotein Cholesterol Total (AVG) ([2]; 25 ppm in diet, 21 days) | Plasma Lipoprotein Cholesterol VLDL (AVG) ([2]; 25 ppm in diet, 21 days) | Plasma glucose (AVG) ([2]; 25 ppm in diet, 21 days) | induction of luciferase activity ([1]; all the concentrations tested (1, 10, 100, 300 μM)) | toxicity to H4IIEC3 cells [3] | lowering of plasma cholesterol levels versus freeze-dried tomato and eggplant materials [4]
19460±1466 relative luciferase units | about 5 fold | acts as an agonist of PPARα |  |  |  | CC(C)(Oc1ccc(C2CC2(Cl)Cl)cc1)C(=O)O (stereo not drawn) [ciprofibrate] |  |  |  |  |  |  |  |  |  |  | 
 |  |  | 110.5 g | 7.9 g | 7.1 | COc1cc(/C=C/c2ccc(O)cc2)cc(OC)c1 [pterostilbene] | 29% | 18% | 1.8 | 137.0 mg/dL | 228.1 mg/dL | 447.8 mg/dL | 82.7 mg/dL | 185.1 |  |  | 
 |  |  |  |  |  | COc1ccc(C=Cc2cc(OC)cc(OC)c2)cc1 [resveratrol trimethylether] |  |  |  |  |  |  |  |  | only slightly |  | 
 |  |  | 109.5 g | 7.6 g |  | Oc1ccc(C=Cc2cc(O)cc(O)c2)cc1 [resveratrol] | 20% | 14% | 2.2 | 127.1 mg/dL | 257.4 mg/dL | 468.2 mg/dL | 83.6 mg/dL | 191 |  | toxic | more effective than the plant materials
